# Test results from PMC6108078 (Chemical research in toxicology, 2018).
# “And” between values parts separate entries of the source, which are not always exact repeats. Equal entries are not always repeated. Where two headings read alike, the source gives them in different places.
# How the values were obtained:
# [1] = target: P450 3A4 (Homo sapiens, UniProt P08684); test: Kinetics of sunitinib metabolite formation by recombinant P450 3A4; format: in vitro ADME; conditions: sunitinib N-deethylation (M1 formation), recombinant enzymes
# [2] = format: in vitro ADME, human
# [3] = mass balance studies in humans; cited from earlier work
# [4] = monkeys administered [14C]sunitinib L-malate; ref sunitinib NDA document, 9; cited from earlier work
# [5] = cited from earlier work
# [6] = for decrease of M5 formation compared to vehicle control: furafylline 25 μM, quinidine 2 μM
# [7] = GSH trapping in pooled human liver microsomes; format: in vitro ADME; conditions: microsomal incubations in the absence of NADPH supplementation
# [8] = patients taking sunitinib; cited from earlier work
# [9] = system: HepG2 cells; conditions: treatment of HepG2 cells; cited from earlier work
# [10] = in the absence of dGSH, sunitinib 25 μM, 1 mg/mL, 30 min
# [11] = in the presence of dGSH (1 mM), sunitinib 25 μM, 1 mg/mL, 30 min
# [12] = sunitinib 10 μM, 0.1 mg/mL, GSH 5 mM, 10 min, ketoconazole 1 μM, CYP3cide 2 μM, mean ± SD, n = 3
# Chain of P450 3A4 (P08684 whole entry): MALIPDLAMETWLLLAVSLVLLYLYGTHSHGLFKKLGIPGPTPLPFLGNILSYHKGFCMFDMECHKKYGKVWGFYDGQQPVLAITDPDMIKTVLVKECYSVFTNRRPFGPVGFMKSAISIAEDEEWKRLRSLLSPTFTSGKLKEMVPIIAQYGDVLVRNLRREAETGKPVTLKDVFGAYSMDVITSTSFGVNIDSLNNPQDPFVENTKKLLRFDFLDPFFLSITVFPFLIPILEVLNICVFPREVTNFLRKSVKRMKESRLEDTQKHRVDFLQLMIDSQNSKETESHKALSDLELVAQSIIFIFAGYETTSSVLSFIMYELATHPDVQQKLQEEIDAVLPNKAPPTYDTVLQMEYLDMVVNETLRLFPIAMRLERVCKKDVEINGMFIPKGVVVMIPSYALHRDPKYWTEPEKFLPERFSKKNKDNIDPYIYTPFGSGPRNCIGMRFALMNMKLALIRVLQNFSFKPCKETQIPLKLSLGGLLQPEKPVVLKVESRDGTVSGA
smiles,measurement,setting,value
"CCNCCNC(=O)c1c(C)[nH]c(/C=C2\C(=O)Nc3ccc(F)cc32)c1C [M1, N-desethylsunitinib]",fold higher efficiency (kcat/Km) of P450 3A4 compared to P450 1A2,[1],~5 fold
same,M1 share of the metabolic turnover of sunitinib,[2]; [10],70%
same,ratio of M1 to sunitinib UV peak area,[2]; [10],0.70
same,M1 share of the metabolic turnover of sunitinib,[2]; [11],41%
same,ratio of M1 to sunitinib (UV peak area at 420–440 nm),[2]; [11],0.41
same,M1 share of sunitinib metabolic turnover in human liver microsomes,[2]; summary statement in discussion,≥ 41%
same,fold higher M1 levels in the absence of dGSH compared to in the presence of dGSH,"[2]; sunitinib 25 μM, 1 mg/mL, 30 min, UV absorbance peak area at 430 nm, n = 2-3",2.5 fold
same,share of the total dose,[3],32–52%
same,share of the total radioactivity recovered in feces,[4],20–40%
same,activity relative to parent drug,[5],equal to that of the parent drug
CC(=O)N1CCN(c2ccc(OCC3COC(Cn4ccnc4)(c4ccc(Cl)cc4Cl)O3)cc2)CC1 (centres unmarked) [ketoconazole],decrease of M5 formation compared to vehicle control,[6]; [12],52 ± 4%
same,decrease of M1 levels compared to vehicle control,[6]; [12],88% and 88 ± 5%
same,decrease of M3 levels compared to control,[6]; [12],40 ± 9%
O=c1cc(-c2ccccc2)oc2c1ccc1ccccc12 [α-naphthoflavone],effect on formation of M3 and M5,"[6]; initial experiments, coincubation with sunitinib, data not shown",significantly increased
same,increase of M3 levels compared to control,"[6]; sunitinib 10 μM, 0.1 mg/mL, GSH 5 mM, 10 min, α-naphthoflavone 1 μM, mean ± SD, n = 3",41 ± 17%
CCN(CC)CCNC(=O)c1c(C)[nH]c(/C=C2\C(=O)Nc3ccc(F)cc32)c1C [sunitinib],direct GSH conjugation of parent drug (Sun–SG),[7],evidence for the direct conjugation of GSH to the parent drug
same,occurrence of clinically significant liver injury,[8],3–4 % of patients
same,occurrence of liver failure,[8],0.3 % of patients
same,hepatocellular toxicity effects,[9],"increase the production of reactive oxygen species, disrupt the mitochondrial membrane potential, deplete glutathione content, and induce apoptosis in a concentration-dependent manner"
Cc1nc2c([nH]1)c(=O)n(C)c(=O)n2Cc1ccco1 [furafylline],decrease of M5 formation compared to vehicle control,[6]; [12],62% and 62 ± 17%
